# Assay results from patent US9757439B2, “Peptide vaccine comprising mutant RAS peptide and chemotherapeutic agent” (priority 2014, dated 2017).
# Assays:
# [1] = tested on: resected pancreatic cancer; conditions: in vivo
# [2] = tested on: DC vaccine-induced T-cell proliferation; conditions: concomitant administration of gemcitabine and the DC vaccine; cited from earlier work
# [3] = tested on: resectable pancreatic cancer; conditions: postoperative gemcitabine versus no gemcitabine; cited from earlier work
smiles,measurement,setting,value
"Nc1ccn([C@@H]2O[C@H](CO)[C@@H](O)C2(F)F)c(=O)n1 [gemcitabine, 4-amino-1-(2-deoxy-2,2-difluoro-β-D-erythro-pentofuranosyl)pyrimidin-2(1H)-on]",principal adverse event related to gemcitabine,"[1]; human, 6 four-week cycles",grade 3/4 neutropenia
same,serious adverse events considered related to gemcitabine,[1],pulmonary infection and two episodes of fever
same,vaccine-induced immune response,[2],significantly impaired
same,development of recurrent disease after complete resection,[3],significantly delayed
